# Literature values as cited in patent US6337095B1, “Process for the isolation of compound scopoletin useful as nitric oxide synthesis inhibitor” (Council of Scientific and Industrial Research, priority 2000, dated 2002).
# System: murine macrophages
# Conditions: reported in literature (Planta Medica 65:400-403, 1999)
compound,measurement,value
"COc1cc2ccc(=O)oc2cc1O [scopoletin, 7-hydroxy-6-methoxy coumarin]",inhibition of nitric oxide (NO) synthesis,showed inhibition
